In patent publication US10172814B2, “Substituted pyridyl-cycloalkyl-carboxylic acids, compositions containing them and medical uses thereof” (BAYER PHARMA AKTIENGESELLSCHAFT, priority 2014, dated 2019):
Where two headings read alike, the source gives them in different places.

Legend:
[1] = test system: CFA induced PGE2 release in the ipsilateral inflamed hind paw of human KI mice (expressing human PTGES); test: PGE2 measurements in CFA inflammation model using humanized KI mice; format: in vivo; conditions: for % inhibition of PGE2 in vivo vs vehicle: p.o., single dose, hind paw 48 h after CFA, 1 h after dose; for inhibition of CFA-induced PGE2 formation/release in the hind paw: single oral dosing, hu KI mice
Procedure: PGE2 Measurements in CFA Inflammation Model Using Humanized KI Mice
Female transgenic mice expressing the human PTGES enzyme (Taconic, Xu et al. 2008) received intraplantar injection of complete Freund's adjuvant (CFA) (30 μl, 1 mg/ml, Sigma) into the left hind paw under isoflurane anesthesia. […] At termination of the experiments (48 h after CFA, 1 h after dose), hind paw tissue is collected for analysis of PGE2 levels (ELISA, Cayman Chemical item no. 514531). […] Statistical analysis is performed with one-way analysis of variance, followed by Bonferroni's multiple comparison test vs. vehicle controls using the GraphPad PRISM software, *p<0.05, **p<0.01.

[2] = Unbound plasma concentration in human KI mice of the CFA model; format: in vivo; conditions: female, human PTGES knock-in (humanized KI, transgenic) mice, mouse, read-out: Plasma concentration Cplasma-unbound
Procedure: At termination of the experiments (48 h after CFA, 1 h after dose), hind paw tissue is collected for analysis of PGE2 levels (ELISA, Cayman Chemical item no. 514531). […] Statistical analysis is performed with one-way analysis of variance, followed by Bonferroni's multiple comparison test vs. vehicle controls using the GraphPad PRISM software, *p<0.05, **p<0.01.

human PTGES = human PTGES (Homo sapiens (Human), UniProt O14684); test: Human PTGES biochemical enzyme inhibition assay (conversion of PGH2 to PGE2, TR-FRET)
Procedure, shortened: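 FLAG-tagged human PTGES from Hi-5 insect cells preincubated 15–20 min with compound in pH 7.2 phosphate buffer with 2.5 mM reduced glutathione; reaction started with 8 nM PGH2 final, stopped with SnCl2/KF.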

[3] = test system: CFA-induced pain behavior in WT mice; test: CFA inflammation model with pain read out (dynamic weight bearing); format: in vivo; conditions: single oral dosing on day 2 post-CFA, example 17: 30, 100 mg/kg, example 44: 30, 75 mg/kg
Procedure: Efficacy in CFA Inflammation Model with Pain Read Out
Wild type (WT) female c57bl/6 mice (Taconic) received intraplantar injection of complete Freund's adjuvant (CFA) (30 μl, 1 mg/ml, Sigma) into the left hind paw under isoflurane anesthesia. […] Spontaneous pain-related behavior in freely moving animals was assessed using the automated dynamic weight bearing device (DWB, Bioseb, France) according to published and validated protocols: Robinson I, Sargent B, Hatcher J P, Neurosci Lett. 2012 Aug. 30; 524(2):107-10. Use of dynamic weight bearing as a novel end-point for the assessment of Freund's Complete Adjuvant induced hypersensitivity in mice; Tétreault P, Dansereau M A, Doré-Savard L, Beaudet N, Sarret P. Physiol Behav. 2011 Sep. […] 2014 Jul. 30; 232:118-24. Use of dynamic weight bearing as a novel end-point for the assessment of abdominal pain in the LPS-induced peritonitis model in the rat. For behavioral testing, the animal was placed inside a Plexiglas chamber and allowed to move freely within the apparatus for a 5 min period, subsequently pain behavior is recorded for a test period of another 5 min.
Statistical analysis is performed with one-way analysis of variance, followed by Bonferroni's multiple comparison test vs. vehicle controls using the GraphPad PRISM software, *p<0.05, **p<0.01.

[4] = test system: vaginal hyperalgesia and proliferation in endometriotic lesions; test: Endometriosis disease model (dyspareunia model); format: in vivo, rat; conditions: 0.75 mg/kg, bid, p.o.
Description: Endometriosis Disease Model (Dyspareunia Model)
Female SD rats underwent endometriosis surgery in the estrus phase. 4 uterine fragments were sewn onto the mesenteric artery arc (closed to small intestine) and few other fragments (>2) were sewn onto the distal colonic wall. In parallel electrodes for later Electromyography (EMG) recordings were implanted in the abdominal wall to allow recording of the visceral motor response. After training viscero-motor response (VMR)/vaginal distension (VD) testing was performed 5 and 6 weeks post-surgery in the proestrus phase. For vaginal distension session, the uninflated balloon was lubricated and inserted into the mid-vaginal canal, located so, that it would not touch the cervix even when inflated. Inflating the balloon with different volumes of water using a computer-controlled pump distended the vaginal canal. In parallel, EMG recordings were collected to measure the VMR related to the distension. At 6 weeks, post-surgery endometriotic lesions and endometrium were excised to perform lesion analysis. RNA expression analysis was performed of lesions and endometrium. RNA of lesions and endometrium was isolated after homogenization of tissues in guanidinium thiocyanate using the RNeasy mini Kit (Qiagen) with DNase digestion. One microgram of RNA was reversely transcribed with random hexamers using the SuperScript III First-Strand Synthesis System (Invitrogen). Real-time Taqman PCR analysis was performed using the 7900HT Real Time PCR-System (Applied Biosystems). Prevalidated probes and primers for Mki67 (antigen identified by monoclonal antibody Ki-67; catalog No. Rn01451446_m1) and the endogenous control TBP* (see FIG. 1A; TATA box binding protein; catalog No. Rn01455646_m1) were purchased from Applied Biosystems. Relative mRNA levels were calculated using the comparative […]CT method using the RQ-Manager software (Applied Biosystems).
Example 17 (0.75 mg/kg, bid, p.o.) was administered twice daily starting end of week 2 post surgery until week 5 post surgery.

[5] = Enzymatic conversion of PGH2 to PGE2, read-out: Human PTGES IC50
[6] = human PTGES, as listed in Table 2, read-out: hu IC50 biochem.

human PTGES, sequence (O14684 whole entry): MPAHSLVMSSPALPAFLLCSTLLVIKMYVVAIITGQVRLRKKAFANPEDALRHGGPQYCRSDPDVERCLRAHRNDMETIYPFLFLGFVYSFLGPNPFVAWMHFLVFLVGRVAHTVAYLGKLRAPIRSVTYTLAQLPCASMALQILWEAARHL

Q: With `Cc1c(CCC(=O)O)cccc1NC(=O)C(c1ccc(-c2cncc(C(F)(F)F)c2)c(F)c1)C1CCCC1` (single isomer, unassigned; (-)) [Example 48, (−) 3-{3-[(Cyclopentyl{3-fluoro-4-[5-(trifluoromethyl)pyridin-3-yl]phenyl}acetyl)amino]-2-methylphenyl}propanoic acid] as the compound, how does the “% inhibition of PGE2 in vivo vs vehicle” value ([1]; 1 mg/kg) read?
A: Its value is 38%.

Q: And the “% inhibition of PGE2 in vivo vs vehicle” value ([1]; 3 mg/kg)?
A: The value was 74%.

Q: And the “% inhibition of PGE2 in vivo vs vehicle” value ([1]; 10 mg/kg)?
A: Its value is 78%.

Q: What about the concentration at 1 h ([2]; in vivo, 1 mg/kg) of the same compound?
A: The concentration at 1 h was 11 nM.

Q: What about the concentration at 1 h ([2]; in vivo, 3 mg/kg) of the same compound?
A: The concentration at 1 h was 32 nM.

Q: What about the concentration at 1 h ([2]; in vivo, 10 mg/kg) of the same compound?
A: Its concentration at 1 h is 88 nM.

Q: What about the IC50 (human PTGES; [5]) of the same compound?
A: The IC50 was 14.2 nM.

Q: And the IC50 (human PTGES; [6])?
A: Its IC50 is 3 nM.

Q: What does the source list for `Cc1c(CCC(=O)O)cccc1NC(=O)C(c1ccc(-c2cncc(Cl)c2)c(F)c1)C1CCCC1` (single isomer, unassigned; (-)) [Example 44, (−) 3-[3-({[4-(5-Chloropyridin-3-yl)-3-fluorophenyl](cyclopentyl)acetyl}amino)-2-methylphenyl]propanoic acid]?
A: % inhibition of PGE2 in vivo vs vehicle ([1]; 1 mg/kg): 95%; % inhibition of PGE2 in vivo vs vehicle ([1]; 3 mg/kg): 65%; % inhibition of PGE2 in vivo vs vehicle ([1]; 10 mg/kg): 100%; inhibition of CFA-induced PGE2 formation/release in the hind paw [1]: strong efficacy; concentration at 1 h ([2]; plasma, oral, 1 mg/kg): 15 nM; concentration at 1 h ([2]; plasma, oral, 3 mg/kg): 47 nM; concentration at 1 h ([2]; plasma, oral, 10 mg/kg): 173 nM; pain behavior as assessed by DWB after CFA-induced inflammation [3]: significantly and dose-dependently reduced pain behavior

Q: For `Cc1c(CCC(=O)O)cccc1NC(=O)[C@@H](c1ccc(-c2cncc(Cl)c2)cc1)C1CCCC1` [Example 17, (−) (R) 3-[3-({[4-(5-Chloropyridin-3-yl)phenyl](cyclopentyl)acetyl}amino)-2-methylphenyl]propanoic acid], which “% inhibition of PGE2 in vivo vs vehicle” value ([1]; 10 mg/kg) is on record?
A: Its value is 88%.

Q: And the “inhibition of CFA-induced PGE2 formation/release in the hind paw” value [1]?
A: Its value is “strong efficacy”.

Q: And the concentration at 1 h ([2]; plasma, oral, 10 mg/kg)?
A: The concentration at 1 h was 380 nM.

Q: And the IC50 (human PTGES; [5])?
A: The IC50 was 35.2 nM.

Q: And the IC50 (human PTGES; [6])?
A: The IC50 was 35 nM.

Q: What about the “pain behavior as assessed by DWB after CFA-induced inflammation” value [3] of the same compound?
A: The value was “significantly and dose-dependently reduced pain behavior”.

Q: What about the “vaginal hyperalgesia versus vehicle-treated animals” value ([4]; end of week 2 until week 5 post surgery, rats) of the same compound?
A: Its value is “significantly decreased vaginal hyperalgesia”.

Q: What about the “proliferation in lesions (gene expression of proliferation marker Ki67 vs. housekeeping control)” value ([4]; Taqman in week 6) of the same compound?
A: The value was “significantly reduced proliferation in lesions”.

Q: What about the “vaginal hyperalgesia effect in the treatment free period” value ([4]; treatment free period of week 6) of the same compound?
A: Its value is “effect was maintained”.

Q: Which results are given for `Cc1c(CCC(=O)O)cccc1NC(=O)C(c1ccc(-c2cncc(C(F)(F)F)c2)cc1)C1CCC1` (single isomer, unassigned; (-)) [Example 55, (−) 3-{3-[(Cyclobutyl{4-[5-(trifluoromethyl)pyridin-3-yl]phenyl}acetyl)amino]-2-methylphenyl}propanoic acid]?
A: % inhibition of PGE2 in vivo vs vehicle ([1]; 1 mg/kg): 84%; % inhibition of PGE2 in vivo vs vehicle ([1]; 3 mg/kg): 93%; % inhibition of PGE2 in vivo vs vehicle ([1]; 10 mg/kg): 96%; concentration at 1 h ([2]; in vivo, 1 mg/kg): 34 nM; concentration at 1 h ([2]; in vivo, 3 mg/kg): 103 nM; concentration at 1 h ([2]; in vivo, 10 mg/kg): 322 nM; IC50 (human PTGES; [5]): 35.4 nM; IC50 (human PTGES; [6]): 27 nM
